The source made the active and inactive calls. Cut-off read from the data, not from the text of the source, for most assays here: actives have a measured EC50 and inactives only a lower limit.
Assays:
Protein RecA = target: T1, Protein RecA (Mycobacterium tuberculosis, UniProt P9WHJ3); test: Fluorescence Cell-Free Homogeneous Dose Retest to Identify Inhibitors of RecA-Intein Splicing Activity. [Related pubchem assays (depositor defined):AID2097, AID2223, AID489010, AID492950]; assay type: functional
T1 sequence (P9WHJ3 whole entry): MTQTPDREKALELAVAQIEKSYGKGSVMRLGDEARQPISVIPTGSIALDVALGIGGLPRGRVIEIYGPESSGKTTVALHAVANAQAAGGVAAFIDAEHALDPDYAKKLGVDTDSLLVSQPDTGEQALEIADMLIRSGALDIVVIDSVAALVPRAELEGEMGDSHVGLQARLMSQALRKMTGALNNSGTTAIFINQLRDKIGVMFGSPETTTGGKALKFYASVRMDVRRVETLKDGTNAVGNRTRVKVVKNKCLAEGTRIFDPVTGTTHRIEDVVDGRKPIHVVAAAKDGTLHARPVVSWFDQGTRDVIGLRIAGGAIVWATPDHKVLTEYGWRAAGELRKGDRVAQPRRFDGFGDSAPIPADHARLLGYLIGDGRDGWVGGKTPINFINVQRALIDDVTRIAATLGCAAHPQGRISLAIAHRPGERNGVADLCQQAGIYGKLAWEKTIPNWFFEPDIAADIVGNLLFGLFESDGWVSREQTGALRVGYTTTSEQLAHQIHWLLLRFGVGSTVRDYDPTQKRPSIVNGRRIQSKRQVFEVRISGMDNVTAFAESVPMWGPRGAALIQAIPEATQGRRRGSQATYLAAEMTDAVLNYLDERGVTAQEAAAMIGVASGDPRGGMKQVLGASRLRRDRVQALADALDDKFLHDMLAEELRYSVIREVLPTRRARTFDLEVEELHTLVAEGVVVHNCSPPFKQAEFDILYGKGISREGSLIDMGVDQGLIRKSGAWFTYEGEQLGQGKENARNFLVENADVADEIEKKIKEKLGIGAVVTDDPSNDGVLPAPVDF

Genome polyprotein = Genome polyprotein (dengue virus type 2, UniProt P29990); test: flavivirus cap methylation enzyme inhibition – biochemical, confirmation dose response, primary screen (AID 588689); assay type: functional
[1] = target: T2, Replicative DNA helicase DnaB (Mycobacterium tuberculosis, UniProt P9WMR3); test: DnaB intein splicing inhibitors, dose response, biochemical, cell-free fluorescence (AID 449749); assay type: functional
T2 sequence (P9WMR3 whole entry): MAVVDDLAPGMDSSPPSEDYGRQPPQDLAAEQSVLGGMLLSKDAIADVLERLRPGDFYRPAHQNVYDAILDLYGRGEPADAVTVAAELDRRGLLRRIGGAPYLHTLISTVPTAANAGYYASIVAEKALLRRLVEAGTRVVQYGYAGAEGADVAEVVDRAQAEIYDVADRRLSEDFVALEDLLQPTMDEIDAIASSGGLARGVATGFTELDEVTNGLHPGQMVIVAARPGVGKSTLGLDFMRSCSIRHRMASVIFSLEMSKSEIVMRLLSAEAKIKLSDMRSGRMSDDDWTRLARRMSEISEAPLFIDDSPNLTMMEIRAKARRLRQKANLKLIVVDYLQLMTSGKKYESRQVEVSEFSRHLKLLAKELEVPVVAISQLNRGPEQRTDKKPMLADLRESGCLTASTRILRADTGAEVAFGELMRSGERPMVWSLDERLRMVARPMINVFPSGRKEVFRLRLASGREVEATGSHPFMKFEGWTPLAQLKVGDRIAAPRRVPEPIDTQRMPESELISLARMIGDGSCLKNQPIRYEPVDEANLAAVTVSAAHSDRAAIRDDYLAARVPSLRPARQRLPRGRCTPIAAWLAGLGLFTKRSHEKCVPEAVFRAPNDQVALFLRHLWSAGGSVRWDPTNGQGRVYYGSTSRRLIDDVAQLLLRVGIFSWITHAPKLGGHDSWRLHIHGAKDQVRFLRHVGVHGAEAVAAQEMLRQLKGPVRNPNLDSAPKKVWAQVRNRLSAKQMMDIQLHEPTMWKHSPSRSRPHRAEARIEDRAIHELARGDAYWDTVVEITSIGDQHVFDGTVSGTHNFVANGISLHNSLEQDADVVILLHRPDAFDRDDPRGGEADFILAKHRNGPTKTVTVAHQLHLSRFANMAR

[2] = target: T3, Heat shock factor protein 1 (Mus musculus, UniProt P38532); test: decrease of HSF1-responsive luciferase luminescence – cell-based, NIH3T3, dose retest, confirmation (AID 2382); assay type: functional;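 note: NIH3T3 fibroblasts with HSF1-driven luciferase reporter stressed by proteasome inhibitor MG132; luminescence from HSF1-driven luciferase expression after 8 hours of MG132 stress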
T3 sequence (P38532 whole entry): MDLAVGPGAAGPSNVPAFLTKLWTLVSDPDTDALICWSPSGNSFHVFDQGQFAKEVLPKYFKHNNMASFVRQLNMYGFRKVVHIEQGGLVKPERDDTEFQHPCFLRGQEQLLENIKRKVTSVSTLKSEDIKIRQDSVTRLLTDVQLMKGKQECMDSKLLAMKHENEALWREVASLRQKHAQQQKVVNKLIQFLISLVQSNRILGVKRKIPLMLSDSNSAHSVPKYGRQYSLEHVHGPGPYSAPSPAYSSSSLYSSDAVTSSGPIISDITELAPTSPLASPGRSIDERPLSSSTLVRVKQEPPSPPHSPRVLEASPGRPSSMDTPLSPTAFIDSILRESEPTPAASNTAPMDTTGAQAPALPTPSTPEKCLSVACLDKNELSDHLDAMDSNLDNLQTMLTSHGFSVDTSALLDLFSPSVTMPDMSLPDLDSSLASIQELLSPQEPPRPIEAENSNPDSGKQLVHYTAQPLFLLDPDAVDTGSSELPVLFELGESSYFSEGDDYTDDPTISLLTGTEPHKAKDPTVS

BJ [3] = test: cells; assay type: functional, cell-based; conditions: Homo sapiens
[4] = DRD fibroblast viability loss – cell-based, non-viral oncogenic, luminescence, dose response (AID 1934); assay type: functional; conditions: Homo sapiens
BJ [5] = test: BJ-TERT fibroblast viability loss – cell-based, RAS-independent, luminescence, dose response (AID 1933); assay type: functional; conditions: Homo sapiens
BJ [6] = test: BJ-TERT-LT-ST fibroblast viability loss – cell-based, RAS-independent, luminescence, dose response (AID 1935); assay type: functional; conditions: Homo sapiens;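 note: BJ fibroblasts immortalized with TERT plus LT and ST oncogenes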
[7] = target: T4, Calpain-2 catalytic subunit (Sus scrofa, UniProt P43367); test: m-calpain protease blockers, concentration series – biochemical, fluorogenic peptide substrate, dose response (AID 1420); assay type: functional
T4 sequence (P43367 whole entry): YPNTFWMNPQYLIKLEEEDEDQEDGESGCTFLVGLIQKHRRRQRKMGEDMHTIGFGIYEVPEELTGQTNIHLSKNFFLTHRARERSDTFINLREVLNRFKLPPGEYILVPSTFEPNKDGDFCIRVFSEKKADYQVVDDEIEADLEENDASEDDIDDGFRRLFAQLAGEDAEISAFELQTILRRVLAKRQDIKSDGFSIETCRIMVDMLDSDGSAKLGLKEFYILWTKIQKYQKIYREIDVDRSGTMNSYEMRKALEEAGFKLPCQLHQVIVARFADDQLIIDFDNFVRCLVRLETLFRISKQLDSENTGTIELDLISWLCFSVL

Coagulation factor XII = target: T5, Coagulation factor XII (Homo sapiens, UniProt P00748); assay type: functional;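 note: activated factor XIIa alpha cleaving a fluorogenic AMC peptide substrate; inhibitor potency from loss of enzyme activity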
T5 sequence (P00748 whole entry): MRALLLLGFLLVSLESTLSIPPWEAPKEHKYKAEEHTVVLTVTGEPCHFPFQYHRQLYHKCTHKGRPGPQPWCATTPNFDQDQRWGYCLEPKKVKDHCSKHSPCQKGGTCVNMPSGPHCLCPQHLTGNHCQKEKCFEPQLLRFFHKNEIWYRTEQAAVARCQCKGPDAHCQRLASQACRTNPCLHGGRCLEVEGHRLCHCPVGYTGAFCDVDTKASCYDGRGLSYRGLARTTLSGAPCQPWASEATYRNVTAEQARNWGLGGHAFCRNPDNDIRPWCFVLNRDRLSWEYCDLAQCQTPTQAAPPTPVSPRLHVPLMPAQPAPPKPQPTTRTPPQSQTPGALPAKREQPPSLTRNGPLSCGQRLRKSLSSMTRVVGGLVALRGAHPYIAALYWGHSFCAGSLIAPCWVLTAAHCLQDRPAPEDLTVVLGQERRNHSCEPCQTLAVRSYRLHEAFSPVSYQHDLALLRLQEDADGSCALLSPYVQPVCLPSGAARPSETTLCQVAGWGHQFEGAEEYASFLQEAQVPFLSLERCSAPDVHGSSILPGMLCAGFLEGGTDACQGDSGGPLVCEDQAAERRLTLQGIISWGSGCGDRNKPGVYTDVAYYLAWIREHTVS

[8] = target: T6, Voltage-gated N-type calcium channel alpha-1B subunit/Amyloid beta A4 precursor protein-binding family A member 1 (Homo sapiens, UniProt Q00975+Q02410); assay type: protein assay
[9] = target: T6, Voltage-gated N-type calcium channel alpha-1B subunit/Amyloid beta A4 precursor protein-binding family A member 1; assay type: protein assay; remark: listed apart in the source
Large T antigen = Large T antigen (Simian virus 40, UniProt P03070); assay type: functional, Betapolyomavirus macacae;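 note: Confirmatory-stage PubChem screen for compounds that inhibit SV40 T antigen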
[10] = target: T7, Zinc finger protein mex-5 (Caenorhabditis elegans, UniProt Q9XUB2); test: potency of MEX-5 RNA-binding blockers – biochemical, C. elegans, fluorescence polarization, dose response (AID 1960)
T7 sequence (Q9XUB2 whole entry): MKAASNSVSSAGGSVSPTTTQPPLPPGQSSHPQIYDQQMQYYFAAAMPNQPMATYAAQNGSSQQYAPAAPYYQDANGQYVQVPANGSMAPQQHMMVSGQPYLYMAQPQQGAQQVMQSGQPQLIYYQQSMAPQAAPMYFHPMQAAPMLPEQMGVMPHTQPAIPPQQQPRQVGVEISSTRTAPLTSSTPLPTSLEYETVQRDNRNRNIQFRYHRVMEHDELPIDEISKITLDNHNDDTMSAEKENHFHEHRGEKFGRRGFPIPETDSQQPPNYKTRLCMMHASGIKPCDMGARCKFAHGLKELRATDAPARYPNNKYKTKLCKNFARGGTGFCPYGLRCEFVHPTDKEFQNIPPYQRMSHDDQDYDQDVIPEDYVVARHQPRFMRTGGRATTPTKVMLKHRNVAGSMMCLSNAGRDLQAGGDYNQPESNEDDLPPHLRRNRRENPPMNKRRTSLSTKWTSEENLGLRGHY

[11] = target: T8, RNA-binding protein pos-1 (Caenorhabditis elegans, UniProt G5EF15); test: disruptors of C. elegans POS-1 RNA interaction – biochemical, fluorescence polarization, dose response (AID 1964);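 note: purified POS-1 fused to maltose binding protein made in E. coli; potency of compounds blocking POS-1 binding to fluorescent RNA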
T8 sequence (G5EF15 whole entry): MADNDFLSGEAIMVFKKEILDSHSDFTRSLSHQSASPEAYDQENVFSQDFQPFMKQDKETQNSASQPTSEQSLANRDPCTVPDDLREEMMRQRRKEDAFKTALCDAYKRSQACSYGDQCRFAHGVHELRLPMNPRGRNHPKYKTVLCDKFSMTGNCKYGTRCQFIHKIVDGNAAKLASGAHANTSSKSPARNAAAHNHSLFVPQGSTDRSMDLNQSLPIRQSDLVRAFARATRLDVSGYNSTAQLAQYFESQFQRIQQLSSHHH

[12] = fluconazole-exposed Candida albicans growth modulators – fluorescence, retest, confirmation (AID 2467); assay type: functional, cell-based
[13] = NIH-3T3 fibroblast cytotoxicity, dose response, cytotoxicity control, cell-based, fluorescence, Alamar Blue, secondary assay (AID 2327); assay type: functional;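 note: NIH-3T3 mouse fibroblasts cultured with fluconazole at 8 µg/mL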
[14] = Luminescence Cell-Based Dose Response HTS to Identify Inhibitors of 5'UTR Stem-Loop Driven Prion Protein mRNA Translation in H4 Neuroglioblastoma Cells. [Related pubchem assays: 1827 (Project Summary), 1813 (Primary HTS)]; assay type: functional
[15] = luciferase reporter signal suppression in cells – H4 neuroglioma cells, luminescence, dose response (AID 1990); assay type: functional, cell-based
[16] = alpha-synuclein stem-loop luciferase translation blockers – H4 neuroglioma cells, luminescence, confirmation (AID 1988); assay type: functional, cell-based
[17] = target: FAD-linked sulfhydryl oxidase ALR (Homo sapiens, UniProt P55789); test: ALR-catalysed DTT oxidation blockers – biochemical, H2O2 detection, luminescence, cherry-pick, dose response (AID 493248)
FAD-linked sulfhydryl oxidase ALR, sequence (P55789 whole entry): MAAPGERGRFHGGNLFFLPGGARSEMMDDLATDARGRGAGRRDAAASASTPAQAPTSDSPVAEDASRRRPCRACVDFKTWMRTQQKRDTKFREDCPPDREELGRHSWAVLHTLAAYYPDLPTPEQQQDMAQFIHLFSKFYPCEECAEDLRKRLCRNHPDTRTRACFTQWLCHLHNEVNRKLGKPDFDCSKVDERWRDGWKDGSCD

T6 sequence (Q00975 whole entry): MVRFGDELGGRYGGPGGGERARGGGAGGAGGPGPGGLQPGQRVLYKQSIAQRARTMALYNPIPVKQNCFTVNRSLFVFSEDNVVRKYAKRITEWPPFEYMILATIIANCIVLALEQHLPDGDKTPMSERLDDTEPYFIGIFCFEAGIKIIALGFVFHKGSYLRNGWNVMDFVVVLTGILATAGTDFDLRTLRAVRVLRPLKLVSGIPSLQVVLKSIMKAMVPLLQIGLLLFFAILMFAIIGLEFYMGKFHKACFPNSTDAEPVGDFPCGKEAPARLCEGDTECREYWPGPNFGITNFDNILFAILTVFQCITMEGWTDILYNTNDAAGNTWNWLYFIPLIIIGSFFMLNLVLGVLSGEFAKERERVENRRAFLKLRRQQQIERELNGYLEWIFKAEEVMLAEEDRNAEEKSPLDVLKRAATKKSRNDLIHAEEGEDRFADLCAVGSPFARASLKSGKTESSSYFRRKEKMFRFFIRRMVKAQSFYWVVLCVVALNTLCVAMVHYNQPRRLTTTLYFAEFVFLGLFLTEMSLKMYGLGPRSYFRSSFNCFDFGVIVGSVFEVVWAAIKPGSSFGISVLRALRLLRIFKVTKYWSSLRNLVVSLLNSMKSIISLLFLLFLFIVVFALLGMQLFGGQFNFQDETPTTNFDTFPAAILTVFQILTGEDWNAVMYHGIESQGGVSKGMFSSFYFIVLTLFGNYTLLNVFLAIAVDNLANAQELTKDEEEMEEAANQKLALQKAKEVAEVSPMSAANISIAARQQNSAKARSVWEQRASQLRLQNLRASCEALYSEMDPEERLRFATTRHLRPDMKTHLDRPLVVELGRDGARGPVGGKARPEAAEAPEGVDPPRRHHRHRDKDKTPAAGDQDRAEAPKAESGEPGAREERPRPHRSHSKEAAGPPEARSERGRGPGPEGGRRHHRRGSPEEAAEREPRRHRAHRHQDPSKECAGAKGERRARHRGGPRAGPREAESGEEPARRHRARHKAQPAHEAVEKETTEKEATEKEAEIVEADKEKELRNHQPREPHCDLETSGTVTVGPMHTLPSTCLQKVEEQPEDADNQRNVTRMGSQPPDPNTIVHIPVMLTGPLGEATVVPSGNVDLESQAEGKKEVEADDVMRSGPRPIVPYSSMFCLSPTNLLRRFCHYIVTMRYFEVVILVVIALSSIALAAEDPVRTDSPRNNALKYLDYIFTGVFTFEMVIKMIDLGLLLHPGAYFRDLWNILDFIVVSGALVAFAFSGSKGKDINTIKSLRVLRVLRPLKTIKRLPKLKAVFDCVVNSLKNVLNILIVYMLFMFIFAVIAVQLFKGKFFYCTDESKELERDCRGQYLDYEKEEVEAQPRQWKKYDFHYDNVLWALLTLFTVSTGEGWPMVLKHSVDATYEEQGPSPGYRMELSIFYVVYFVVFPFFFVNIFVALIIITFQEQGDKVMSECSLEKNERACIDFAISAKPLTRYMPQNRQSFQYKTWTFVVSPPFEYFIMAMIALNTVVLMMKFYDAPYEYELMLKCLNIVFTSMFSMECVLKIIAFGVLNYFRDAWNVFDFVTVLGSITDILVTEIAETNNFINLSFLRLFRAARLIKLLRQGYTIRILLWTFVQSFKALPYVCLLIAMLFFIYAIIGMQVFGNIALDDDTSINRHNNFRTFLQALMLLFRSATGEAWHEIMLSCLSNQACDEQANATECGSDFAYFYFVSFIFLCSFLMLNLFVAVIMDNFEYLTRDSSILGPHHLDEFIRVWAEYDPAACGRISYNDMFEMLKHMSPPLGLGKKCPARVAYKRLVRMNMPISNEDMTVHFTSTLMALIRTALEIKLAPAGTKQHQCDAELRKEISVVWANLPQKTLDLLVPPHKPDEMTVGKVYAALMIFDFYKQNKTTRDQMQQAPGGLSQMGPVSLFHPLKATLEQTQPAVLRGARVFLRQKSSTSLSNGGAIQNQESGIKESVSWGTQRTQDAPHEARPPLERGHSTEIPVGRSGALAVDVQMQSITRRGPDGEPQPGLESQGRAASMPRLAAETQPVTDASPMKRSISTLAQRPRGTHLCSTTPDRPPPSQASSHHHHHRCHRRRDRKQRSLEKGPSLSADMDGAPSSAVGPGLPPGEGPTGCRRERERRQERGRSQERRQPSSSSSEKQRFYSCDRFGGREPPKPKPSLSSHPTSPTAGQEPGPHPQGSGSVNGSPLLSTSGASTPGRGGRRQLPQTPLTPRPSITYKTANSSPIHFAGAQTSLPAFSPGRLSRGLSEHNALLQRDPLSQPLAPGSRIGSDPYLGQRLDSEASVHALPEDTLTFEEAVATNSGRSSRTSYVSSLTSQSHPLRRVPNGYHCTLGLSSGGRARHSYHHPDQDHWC
T6 sequence (Q02410 whole entry): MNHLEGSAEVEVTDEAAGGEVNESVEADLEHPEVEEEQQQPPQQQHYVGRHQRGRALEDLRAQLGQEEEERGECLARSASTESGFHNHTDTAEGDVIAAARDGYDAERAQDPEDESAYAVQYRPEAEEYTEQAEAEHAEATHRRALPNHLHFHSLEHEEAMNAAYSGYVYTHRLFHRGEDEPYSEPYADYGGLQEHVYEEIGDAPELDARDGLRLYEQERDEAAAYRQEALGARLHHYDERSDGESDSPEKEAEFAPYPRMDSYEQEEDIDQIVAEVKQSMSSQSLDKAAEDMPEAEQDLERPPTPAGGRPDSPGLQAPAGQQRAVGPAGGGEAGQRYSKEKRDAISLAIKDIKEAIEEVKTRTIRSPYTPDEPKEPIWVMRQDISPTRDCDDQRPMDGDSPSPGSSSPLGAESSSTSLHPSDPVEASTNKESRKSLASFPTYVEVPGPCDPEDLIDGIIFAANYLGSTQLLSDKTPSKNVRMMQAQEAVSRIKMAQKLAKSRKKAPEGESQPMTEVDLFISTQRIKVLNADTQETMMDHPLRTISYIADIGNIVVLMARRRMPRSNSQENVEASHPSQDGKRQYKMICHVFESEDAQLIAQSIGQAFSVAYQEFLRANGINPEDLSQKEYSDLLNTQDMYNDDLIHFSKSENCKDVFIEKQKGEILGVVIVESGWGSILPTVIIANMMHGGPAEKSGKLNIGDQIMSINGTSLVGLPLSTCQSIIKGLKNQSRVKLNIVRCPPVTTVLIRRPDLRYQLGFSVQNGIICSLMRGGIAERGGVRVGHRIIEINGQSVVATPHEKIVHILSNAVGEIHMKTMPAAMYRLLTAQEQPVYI
Genome polyprotein, sequence (P29990 2492-3391 limits assumed): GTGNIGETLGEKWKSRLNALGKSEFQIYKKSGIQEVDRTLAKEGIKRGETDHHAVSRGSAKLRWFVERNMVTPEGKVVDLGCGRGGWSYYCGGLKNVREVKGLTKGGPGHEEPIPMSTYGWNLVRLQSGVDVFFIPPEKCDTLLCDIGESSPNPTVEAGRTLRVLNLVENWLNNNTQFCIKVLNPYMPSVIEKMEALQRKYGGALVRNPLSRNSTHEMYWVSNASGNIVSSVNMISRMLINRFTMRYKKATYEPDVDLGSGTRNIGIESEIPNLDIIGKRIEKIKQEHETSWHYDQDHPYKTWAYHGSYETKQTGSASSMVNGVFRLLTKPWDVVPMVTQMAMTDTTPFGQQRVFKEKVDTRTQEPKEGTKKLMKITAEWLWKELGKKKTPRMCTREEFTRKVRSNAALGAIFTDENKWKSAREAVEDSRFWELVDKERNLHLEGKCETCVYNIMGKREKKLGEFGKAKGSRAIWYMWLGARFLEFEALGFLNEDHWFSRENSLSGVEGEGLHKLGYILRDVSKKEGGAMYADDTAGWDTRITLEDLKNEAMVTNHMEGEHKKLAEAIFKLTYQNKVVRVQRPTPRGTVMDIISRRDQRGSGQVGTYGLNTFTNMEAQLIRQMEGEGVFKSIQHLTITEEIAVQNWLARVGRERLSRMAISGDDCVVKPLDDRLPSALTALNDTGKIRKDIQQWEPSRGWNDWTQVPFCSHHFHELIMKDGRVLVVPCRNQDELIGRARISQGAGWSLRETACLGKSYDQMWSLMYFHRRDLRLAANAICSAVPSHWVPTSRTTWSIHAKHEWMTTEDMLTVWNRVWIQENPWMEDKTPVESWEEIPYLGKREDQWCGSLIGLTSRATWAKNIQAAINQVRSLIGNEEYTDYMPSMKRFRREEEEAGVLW
Large T antigen, sequence (P03070 whole entry): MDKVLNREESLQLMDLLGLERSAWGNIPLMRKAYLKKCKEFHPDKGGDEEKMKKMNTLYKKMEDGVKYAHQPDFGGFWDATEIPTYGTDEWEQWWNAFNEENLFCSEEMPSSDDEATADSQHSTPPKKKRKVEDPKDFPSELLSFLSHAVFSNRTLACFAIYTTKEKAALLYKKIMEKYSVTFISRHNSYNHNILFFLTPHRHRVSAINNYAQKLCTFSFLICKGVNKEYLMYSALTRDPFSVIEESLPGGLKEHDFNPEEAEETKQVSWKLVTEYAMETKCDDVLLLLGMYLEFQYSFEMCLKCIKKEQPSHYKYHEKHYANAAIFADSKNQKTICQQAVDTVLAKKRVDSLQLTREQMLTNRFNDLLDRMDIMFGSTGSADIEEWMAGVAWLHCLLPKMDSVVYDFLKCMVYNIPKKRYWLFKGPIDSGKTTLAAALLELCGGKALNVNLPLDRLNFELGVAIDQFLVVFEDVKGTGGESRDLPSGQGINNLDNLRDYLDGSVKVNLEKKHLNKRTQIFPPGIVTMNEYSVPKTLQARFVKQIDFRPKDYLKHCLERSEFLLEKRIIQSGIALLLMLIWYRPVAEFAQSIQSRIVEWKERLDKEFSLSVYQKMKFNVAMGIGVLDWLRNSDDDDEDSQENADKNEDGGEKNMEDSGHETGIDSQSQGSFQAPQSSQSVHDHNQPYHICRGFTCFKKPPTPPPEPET

Cc1ccc(SCc2n[nH]c3c2C(c2ccc(C)o2)C(C#N)=C(N)O3)cc1 (stereo not drawn)
EC50 (Protein RecA): 7.85 µM (active)
IC50 (Genome polyprotein): > 100 µM (active)
AC50 [1]: 61.4 µM (active)
EC50 [2]: > 195 µM (not active)

N#CC1=C(N)Oc2cc(N)ccc2C1c1cc(Br)cs1 (stereo not drawn)
EC50 (BJ [3]): 94.1 µM (inconclusive)
EC50 [4]: 15.5 µM (inconclusive)
EC50 (BJ [5]): 11.4 µM (active)
EC50 (BJ [6]): 20.6 µM (inconclusive)

COc1ccc(S(=O)(=O)N2CCCCC2)cc1NC(=O)CN(C)C1CCCCC1
IC50 [7]: 10.8 µM (not active)
IC50 (Coagulation factor XII): > 50 µM (inactive)

CNC(=S)N=C(Nc1ccc(C)cc1)c1ccccc1
IC50 [8]: 2.38 µM (active)
IC50 [9]: > 50 µM (inactive)

CCC(=O)c1ccc(Oc2ccc(C(=O)c3ccc(C)cc3)cc2[N+](=O)[O-])cc1
EC50 (BJ [3]): > 150 µM (not active)
EC50 [4]: > 150 µM (not active)
EC50 (BJ [5]): > 150 µM (not active)
EC50 (BJ [6]): > 150 µM (not active)

COC/C=C/C1=CC2=CC(=O)C(C)(OC(=O)CCC(=O)OC)C(=O)C2=CO1 (stereo not drawn)
IC50 [8]: > 56.8 µM (not active)
IC50 (Large T antigen): > 100 µM (active)
IC50 [9]: 7.43 µM (active)
EC50 [10]: 17 µM (active)
EC50 [11]: 22.1 µM (active)

NC(=O)c1ccc(-n2nnnc2SCC(=O)Nc2ccccc2-c2ccccc2)cc1
IC50 [7]: 5.14 µM (not active)

O=C(CCN1C(=O)/C(=C/c2ccccc2F)SC1=S)NC1C=CS(=O)(=O)C1 (stereo not drawn)
IC50 [8]: 2.87 µM (active)
IC50 [9]: > 50 µM (inactive)

CN(C)C(=O)c1cn(-c2ccccc2)nc1-c1cccs1
EC50 [12]: 7.34 µM (active)
EC50 [13]: 24 µM (inconclusive)

COCCCNc1nnc(Cc2ccc(Cl)cc2)c(O)n1
EC50 [14]: 9.52 µM (active)
EC50 (BJ [3]): 24.2 µM (active)
EC50 [4]: 1.04 µM (active)
EC50 [15]: 9.25 µM (inconclusive)
EC50 [16]: 6.13 µM (active)
EC50 (BJ [5]): 1.47 µM (active)
EC50 (BJ [6]): 0.913 µM (active)

Cc1ccc(NC(=O)c2cccc(C(=O)Nc3ccc(C)cc3C(=O)O)c2)c(C(=O)O)c1
IC50 (Genome polyprotein): 22.3 µM (active)
AC50 [17]: 2.11 µM (active)

Cc1nc(C)n(CC(O)COc2ccc(C(=O)c3ccccc3)cc2)n1 (stereo not drawn)
IC50 [7]: 13.4 µM (not active)

Cn1c(NCc2ccco2)nc2c1c(=O)n(Cc1ccc(Br)cc1)c(=O)n2C
IC50 [7]: 2.84 µM (not active)

COc1ccc(OC)c(C(c2nnnn2C2CCCC2)N2CCN(c3ccccc3F)CC2)c1 (stereo not drawn)
IC50 [7]: 1.31 µM (not active)
